# In US12325696B2, “Indazole derivative, preparation method therefor, and pharmaceutical application thereof” (JIANGSU HENGRUI MEDICINE CO., LTD., priority 2019, dated 2025):
# Legend:
# MCF7 D538G = assay: Inhibition of proliferation of MCF7 cell expressing ERα D538G mutant; assay type: cell-based; settings: Homo sapiens, 144 hours; for Emax: read-out: Maximum inhibition
# In short: (§1)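 MCF7 cells stably expressing lentiviral ERα Y537S or D538G mutants, seeded 3,000 cells/well, then exposed in 2% FBS MEM to nine 4-fold dilutions from 100 nM for 144 h at 37° C. Viability read by CellTiter-Glo luminescence; IC50 fitted from concentration-response.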
# [1] = test system: estrogen receptor reporter gene; assay: Inhibition of estrogen receptor reporter gene activity (ERE-luc luciferase) in MCF7/ERE-luc cells; assay type: cell-based; settings: Homo sapiens, 0.1 nM β-estradiol, 20 hours, read-out: IC50 of inhibitory activity on the activity of the estrogen receptor reporter gene
# In short: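 MCF7 cells stably carrying ERE-driven luciferase, in charcoal-stripped serum medium, were stimulated with 0.1 nM β-estradiol plus compound (nine 10-fold dilutions from 10 μM) for 20 h at 37° C. ONE-Glo luminescence was read, and IC50 was fitted from signal versus log concentration.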
# [2] = biological target: estrogen receptor ERα Y537S mutant-type (Homo sapiens (Human), UniProt P03372, Y537S); assay: Covalent modification of ERα Y537S mutant-type LBD by high-resolution mass spectrometry; assay type: binding; settings: after 24 hours; 2 μM protein, 10 μM compound, 4° C.
# Chain of estrogen receptor ERα Y537S mutant-type (P03372 296-554 Y537S): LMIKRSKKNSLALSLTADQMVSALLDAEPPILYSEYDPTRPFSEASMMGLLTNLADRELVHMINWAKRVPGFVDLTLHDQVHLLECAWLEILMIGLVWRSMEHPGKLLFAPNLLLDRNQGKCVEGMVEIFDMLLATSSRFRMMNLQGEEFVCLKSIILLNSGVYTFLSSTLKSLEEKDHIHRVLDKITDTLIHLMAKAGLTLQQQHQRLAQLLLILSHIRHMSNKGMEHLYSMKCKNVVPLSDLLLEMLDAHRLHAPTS
# Description: (§2) The ligand binding domain (LBD, aa296-554) of estrogen receptor ERα wild-type and ERα Y537S mutant-type was expressed in E. coli and purified. 2 μM ERα wild-type or ERα Y537S mutant-type protein and 10 μM compound were added to a buffer solution containing 50 mM Tris-HCl, pH7.5, 150 mM NaCl, 1 mM TCEP and 5% glycerol and mixed well. The solution was incubated at 4° C. for 24 hours, followed by high-resolution mass spectrometry (Agilent Technologies, Agilent Q-tof 6530) assay. Alternatively, 1 μM ERα wild-type or ERα Y537S mutant-type protein and 3 μM compound were added to a buffer solution containing 50 mM Tris-HCl, pH7.5, 150 mM NaCl, 1 mM TCEP and 5% glycerol and mixed well. The solution was incubated at 37° C. for 15 minutes, followed by high-resolution mass spectrometry assay. In the mass spectrometry assay results, the peak whose molecular weight is the sum of the molecular weight of the protein and compound is the product of covalent modification. The percentage of covalent modification is obtained by calculating the ratio of […] to total protein.
# [3] = biological target: estrogen receptor ERα wild-type (Homo sapiens (Human), UniProt P03372); assay: Covalent modification of ERα wild-type LBD by high-resolution mass spectrometry; assay type: binding; settings: after 24 hours; 2 μM protein, 10 μM compound, 4° C.
# Chain of estrogen receptor ERα wild-type (P03372 296-554): as the sequence (P03372 296-554 Y537S) above, with S242Y counted along it
# Description: as §2
# MCF7 cell = assay: Inhibition of proliferation of MCF7 cell (CellTiter-Glo, 144 hours); assay type: cell-based; settings: Homo sapiens; for IC50: MCF7, CellTiter-Glo, read-out: IC50 of the inhibitory effect on the proliferation of MCF7 cell; for Emax: MCF7 cell proliferation, read-out: Maximum inhibition
# In short: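 Seeded overnight, MCF7 cells were treated in MEM with 2% FBS with nine 4-fold dilutions from 100 nM (0.5% DMSO blank). Incubation 144 h at 37° C, 5% CO2. CellTiter-Glo luminescence read; IC50 from signal versus log concentration.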
# MCF7 ERαY537S = assay: Inhibition of proliferation of MCF7 cell expressing ERα Y537S mutant; assay type: cell-based; settings: Homo sapiens, 144 hours; for Emax: read-out: Maximum inhibition
# In short: as §1
# Nav1.5 ion channel = Nav1.5 ion channel (Homo sapiens (Human), UniProt Q14524); assay: Manual patch clamp inhibition of Nav1.5 current in HEK293 cell; assay type: cell-based; settings: whole-cell patch clamp, read-out: IC50 on inhibiting the Nav1.5 channel activity
# Chain of Nav1.5 ion channel (Q14524 whole entry): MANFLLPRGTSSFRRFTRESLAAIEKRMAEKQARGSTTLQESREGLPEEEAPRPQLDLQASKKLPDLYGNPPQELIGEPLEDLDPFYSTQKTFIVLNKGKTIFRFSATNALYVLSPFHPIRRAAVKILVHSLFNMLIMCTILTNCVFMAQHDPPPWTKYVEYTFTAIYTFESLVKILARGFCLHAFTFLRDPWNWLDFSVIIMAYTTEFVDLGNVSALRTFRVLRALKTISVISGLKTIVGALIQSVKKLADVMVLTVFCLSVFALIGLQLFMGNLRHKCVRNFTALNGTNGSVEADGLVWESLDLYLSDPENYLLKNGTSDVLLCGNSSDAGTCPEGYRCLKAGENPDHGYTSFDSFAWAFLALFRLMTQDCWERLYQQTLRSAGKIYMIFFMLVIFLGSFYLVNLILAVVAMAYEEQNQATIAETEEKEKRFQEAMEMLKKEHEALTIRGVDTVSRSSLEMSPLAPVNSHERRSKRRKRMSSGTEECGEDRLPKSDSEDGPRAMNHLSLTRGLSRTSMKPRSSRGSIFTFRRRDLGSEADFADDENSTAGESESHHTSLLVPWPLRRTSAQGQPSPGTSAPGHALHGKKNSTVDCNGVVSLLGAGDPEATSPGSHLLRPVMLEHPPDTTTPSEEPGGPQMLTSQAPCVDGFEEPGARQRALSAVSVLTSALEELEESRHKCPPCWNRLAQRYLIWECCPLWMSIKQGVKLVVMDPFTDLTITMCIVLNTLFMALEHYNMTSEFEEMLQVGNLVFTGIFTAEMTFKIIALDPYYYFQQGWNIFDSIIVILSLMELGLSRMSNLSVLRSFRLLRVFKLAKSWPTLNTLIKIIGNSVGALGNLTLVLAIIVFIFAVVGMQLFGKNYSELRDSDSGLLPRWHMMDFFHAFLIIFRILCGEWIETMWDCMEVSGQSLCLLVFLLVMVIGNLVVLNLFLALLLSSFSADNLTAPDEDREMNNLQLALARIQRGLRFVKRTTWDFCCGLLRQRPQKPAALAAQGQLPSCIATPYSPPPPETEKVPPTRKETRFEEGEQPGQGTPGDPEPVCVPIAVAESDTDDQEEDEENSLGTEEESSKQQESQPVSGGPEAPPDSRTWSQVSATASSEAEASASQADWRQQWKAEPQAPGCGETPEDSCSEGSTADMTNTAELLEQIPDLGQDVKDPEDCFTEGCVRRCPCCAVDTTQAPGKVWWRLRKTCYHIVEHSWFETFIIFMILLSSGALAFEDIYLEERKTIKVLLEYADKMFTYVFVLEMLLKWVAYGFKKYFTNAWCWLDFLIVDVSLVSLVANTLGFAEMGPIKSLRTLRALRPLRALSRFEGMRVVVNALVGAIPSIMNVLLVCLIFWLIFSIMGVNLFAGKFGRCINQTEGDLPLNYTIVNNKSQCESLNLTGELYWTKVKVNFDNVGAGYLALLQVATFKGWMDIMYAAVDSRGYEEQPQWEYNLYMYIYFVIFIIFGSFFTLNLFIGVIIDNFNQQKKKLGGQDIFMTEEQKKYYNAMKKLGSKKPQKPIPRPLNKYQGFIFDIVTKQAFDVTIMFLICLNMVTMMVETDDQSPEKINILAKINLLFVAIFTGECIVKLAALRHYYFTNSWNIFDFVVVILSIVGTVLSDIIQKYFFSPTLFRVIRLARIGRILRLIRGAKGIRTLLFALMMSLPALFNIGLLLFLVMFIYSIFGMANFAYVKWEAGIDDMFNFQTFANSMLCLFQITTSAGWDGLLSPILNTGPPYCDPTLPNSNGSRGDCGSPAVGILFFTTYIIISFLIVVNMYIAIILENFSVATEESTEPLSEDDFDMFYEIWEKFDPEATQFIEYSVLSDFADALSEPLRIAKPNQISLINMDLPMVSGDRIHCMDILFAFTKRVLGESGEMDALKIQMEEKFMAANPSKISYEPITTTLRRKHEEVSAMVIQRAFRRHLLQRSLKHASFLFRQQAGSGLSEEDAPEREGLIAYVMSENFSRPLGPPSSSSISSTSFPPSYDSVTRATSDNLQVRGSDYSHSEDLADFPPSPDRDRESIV
# Description: The purpose of the experiment is to investigate the effect of the compounds on Nav1.5 ion channel in an […] experiment. Nav1.5 ion channel is stably expressed on HEK293 cell. After the Nav1.5 current becomes stable, the Nav1.5 currents before and after the administration of the compound are compared so as to obtain the effect of the compound on the Nav1.5 ion channel.
# Extracellular fluid: NaCl, 137 mM; KCl, 4 mM; CaCl2), 1.8 mM; MgCl2, 1 mM; HEPES, 10; glucose, 10 mM; pH 7.4 (NaOH titration).
# Intracellular fluid: aspartic acid, 140 mM; MgCl2, 2 mM; EGTA, 11 mM; HEPES, 10 mM; pH 7.2 (CsOH titration).
# The test compound was dissolved in dimethyl sulfoxide (DMSO) at a stock concentration of 9 mM. The stock solution of the test compound was dissolved in the extracellular fluid on the day of the test and formulated into the required concentration.
# 1) The compound was formulated into solutions with specified concentrations. The solutions were added to the pipelines respectively in order from high to low concentration, and the pipelines were marked.
# 2) The cell was transferred to the perfusion tank, and perfused with the extracellular fluid. The intracellular fluid was stored in small batches in a −80° C. refrigerator, and melted on the day of the experiment. The electrode was pulled with PC-10 (Narishige, Japan). Recording was carried out with the whole-cell patch clamp, and the noise was filtered at one-fifth of the sampling frequency.
# 3) All compounds were perfused with a perfusion system that uses its own gravity. Each concentration was tested in at least two cells. After the current stabilized (or after 5 minutes), the blocking effect of the compound was calculated by comparing the changes in the current before and after the administration of the compound.
# The cell was clamped at −80 mV. The cell was depolarized to Vhalf with a square wave lasting 8 milliseconds, hyperpolarized to −120 mV with a square wave lasting 20 milliseconds, and depolarized to −10 mV with a square wave lasting 20 milliseconds to obtain the Nav1.5 current. This procedure was repeated every 15 seconds. The maximum current caused by the −10 mV square wave was measured. After the current became stable, the test compound was perfused. After the response became stable, the blocking intensity was calculated.
# The data was stored in the computer system for analysis. Data collection and analysis were carried out by pCLAMP 10 (Molecular Devices, Union City, CA). Stable current means that the absolute average value of the peak current of four consecutive scans exceeds 200 pA and the CV value is less than 10%, or the average value of the peak current of four consecutive scans is between 200 pA and 50 pA and the CV value is less than 30%. The average value of the last four current peaks after the current stabilized was used to calculate the effect of the compound at the concentration.
Structure (SMILES),IC50 (MCF7 D538G) [nM],IC50 [1] [nM],Covalent modification effect on the estrogen receptor ERα Y537S mutant-type [2] [%],Covalent modification effect on the estrogen receptor ERα wild-type [3] [%],IC50 (MCF7 cell) [nM],IC50 (MCF7 ERαY537S) [nM],Emax (MCF7 D538G) [%],Emax (MCF7 cell) [%],Emax (MCF7 ERαY537S) [%],IC50 (Nav1.5 ion channel) [nM]
"O=C(/C=C/CN1CCC[C@@H](Oc2ccc(/C(=C(/CC(F)(F)F)c3ccccc3)c3ccc4[nH]nc(F)c4c3)cn2)C1)N1CCNCC1 [Example 18, (E)-1-(Piperazin-1-yl)-4-((R)-3-((5-((Z)-4,4,4-trifluoro-1-(3-fluoro-1H-indazol-5-yl)-2-phenylbut-1-en-1-yl)pyridin-2-yl)oxy)piperidin-1-yl)but-2-en-1-one]",5,6,99,98,1,8,104,100,92,–
"CN(C)C(=O)/C=C/CN1CCC[C@@H](Oc2ccc(/C(=C(/CC(F)(F)F)c3ccc(C(F)(F)F)cc3)c3ccc4[nH]nc(F)c4c3)cn2)C1 [Example 22, (E)-N,N-Dimethyl-4-((R)-3-((5-((Z)-4,4,4-trifluoro-1-(3-fluoro-1H-indazol-5-yl)-2-(4-(trifluoromethyl)phenyl)but-1-en-1-yl)pyridin-2-yl)oxy)piperidin-1-yl)but-2-enamide]",15,24,100,95,4,15,93,103,97,–
"O=C(/C=C/CN[C@H]1CCCN(c2ccc(/C(=C(/CC(F)(F)F)c3ccccc3)c3ccc4[nH]nc(F)c4c3)cn2)C1)N1CCOCC1 [Example 38, (E)-1-Morpholino-4-(((S)-1-(5-((Z)-4,4,4-trifluoro-1-(3-fluoro-1H-indazol-5-yl)-2-phenylbut-1-en-1-yl)pyridin-2-yl)piperidin-3-yl)amino)but-2-en-1-one]",2,5,96,95,0.8,4,108,96,102,–
"O=C(/C=C/CNCCOc1ccc(/C(=C(/CC(F)(F)F)c2ccccc2)c2ccc3[nH]nc(F)c3c2)cn1)N1CCOCC1 [Example 43, (E)-1-Morpholino-4-((2-((5-((Z)-4,4,4-trifluoro-1-(3-fluoro-1H-indazol-5-yl)-2-phenylbut-1-en-1-yl)pyridin-2-yl)oxy)ethyl)amino)but-2-en-1-one, reference compound]",–,–,–,–,–,–,–,–,–,2700

# The next lines start with results.
IC50 (MCF7 D538G) [nM],IC50 [1] [nM],Covalent modification effect on the estrogen receptor ERα Y537S mutant-type [2] [%],Covalent modification effect on the estrogen receptor ERα wild-type [3] [%],IC50 (MCF7 cell) [nM],IC50 (MCF7 ERαY537S) [nM],Structure (SMILES),Emax (MCF7 D538G) [%],Emax (MCF7 cell) [%],Emax (MCF7 ERαY537S) [%],IC50 (Nav1.5 ion channel) [nM]
2,4,97,94,0.4,2,"CN(C)C(=O)/C=C/CN1CCC[C@@H](Oc2ccc(/C(=C(/CC(F)(F)F)c3ccc(F)cc3)c3ccc4[nH]nc(F)c4c3)cn2)C1 [Example 19, (E)-N,N-Dimethyl-4-((R)-3-((5-((Z)-4,4,4-trifluoro-1-(3-fluoro-1H-indazol-5-yl)-2-(4-fluorophenyl)but-1-en-1-yl)pyridin-2-yl)oxy)piperidin-1-yl)but-2-enamide]",97,97,106,–
7,13,99,95,1,5,"CN(C)C(=O)/C=C/CN1CCC[C@@H](Oc2ccc(/C(=C(/CC(F)(F)F)c3ccc(S(C)(=O)=O)cc3)c3ccc4[nH]nc(F)c4c3)cn2)C1 [Example 23, (E)-N,N-Dimethyl-4-((R)-3-((5-((Z)-4,4,4-trifluoro-1-(3-fluoro-1H-indazol-5-yl)-2-(4-(methylsulfonyl)phenyl)but-1-en-1-yl)pyridin-2-yl)oxy)piperidin-1-yl)but-2-enamide]",101,97,94,–
8,9,99,90,1,8,"CN(C)C(=O)/C=C/CN1CCC[C@@H](Oc2ccc(/C(=C(/CC(F)(F)F)c3ccc(C#N)cc3)c3ccc4[nH]nc(F)c4c3)cn2)C1 [Example 24, (E)-4-((R)-3-((5-((Z)-2-(4-Cyanophenyl)-4,4,4-trifluoro-1-(3-fluoro-1H-indazol-5-yl)but-1-en-1-yl)pyridin-2-yl)oxy)piperidin-1-yl)-N,N-dimethylbut-2-enamide]",94,98,102,–
2,6,83,80,0.7,3,"CN(C)C(=O)/C=C/CN1CCC[C@@H](Nc2ccc(/C(=C(/CC(F)(F)F)c3ccccc3)c3ccc4[nH]nc(F)c4c3)cn2)C1 [Example 31, (E)-N,N-Dimethyl-4-((R)-3-((5-((Z)-4,4,4-trifluoro-1-(3-fluoro-1H-indazol-5-yl)-2-phenylbut-1-en-1-yl)pyridin-2-yl)amino)piperidin-1-yl)but-2-enamide]",101,97,105,–
11,28,95,94,5,19,"O=C(/C=C/CN1CCC[C@@H](Nc2ccc(/C(=C(/CC(F)(F)F)c3ccccc3)c3ccc4[nH]nc(F)c4c3)cn2)C1)N1CCOCC1 [Example 32, (E)-1-Morpholino-4-((R)-3-((5-((Z)-4,4,4-trifluoro-1-(3-fluoro-1H-indazol-5-yl)-2-phenylbut-1-en-1-yl)pyridin-2-yl)amino)piperidin-1-yl)but-2-en-1-one]",95,100,84,–
